{"source": "patent US20230399374A1", "about": "“Compounds, Compositions and Methods of Use to Treat Bone Fractures” (PURDUE RESEARCH FOUNDATION, priority 2020, published 2023)", "test": "Serum calcium after 21 days of treatment (QuantiChrom Calcium Assay)", "assay_type": "in vivo, Swiss Webster mouse", "details": "FIG. 25", "source_text": "In some instances, using a targeted anabolic described herein (e.g., as opposed to free anabolics) is beneficial for treating bone fracture, such as, for example, because targeted anabolics hereof can limit the effects on the regulation of calcium metabolism that occurs in the kidneys for parathyroid hormones.\nFor quantitative determination of calcium ion (Ca^2+) and evaluation of drug effects on calcium metabolism, the QuantiChrom Calcium Assay Kit from BioAssay Systems (Hayward, CA) was used. A phenolsulfonphthalein dye in the kit specifically forms a very stable, blue-colored complex with free calcium. The intensity of the color, measured at 612 nm, is directly proportional to the calcium concentration in the sample. […] The serum was removed from the cell pellet and stored at −80° C. until calcium concentration quantification. […] After that, the samples were incubated for 3 minute at room temperature and optical density at 570-650 nm (peak absorbance at 612 nm) was read to obtain the ODSAMPLE. […] The plate was tapped to mix and optical density was measured at the same wavelength to get ODSTANDARD. […] Optical density was read at the same wavelength measurement to get ODBLANK. […]\nwhere ODSAMPLE, ODBLANK, and ODSTANDARD are the OD readings of the Sample, Sample Blank, and the Sample plus Standard respectively; 10 is the concentration of the standard in mg/dL, and n is the sample dilution factor. […]", "note": "Non-standard residues stand in square brackets, D forms with d. No end group written: not given here.", "data": [{"substance": "SVSEIQLMHNLGKHLNSMERVEWLRKKLQDVHNFVALGAPLAPRDA[dE][dE][dE][dE][dE][dE][dE][dE][dE][dE] [SEQ ID NO: 13]", "values": [{"measurement": "blood (serum) calcium", "result": "did not increase the blood calcium significantly in comparison to the free form"}]}]}
